US7666901B2, “Analogs of 17-hydroxywortmannin as PI3K inhibitors” (Wyeth, priority 2004, dated 2010)
Converted amounts (≈) assume the structure as drawn.

Assays:
[1] = system: phosphor-AKT (S473) in Rat1 cells; assay: Rat1-IGF1 assay (IGF-1 induced phospho-AKT immunoblot); type: cell-based, rat; conditions: Rattus norvegicus
Method: Rat1 cells are plated in 6-well culture plates and serum-starved for 24 hours. Serum-starved cells are treated either with control vehicle or with various concentrations of 17-HWT for 2 hours, stimulated by IGF-1 (100 ng/mL) for 30 minutes. Total cellular lysates are prepared using NuPAGE-LDS sample buffer (Invitrogen), sonicated and then clarified by centrifugation. Equal amounts of proteins are subject to immunoblotting analysis using NuPAGE electrophoresis system and probed with phosphor-AKT (S473), total AKT antibodies (Signaling Technology).

Human TOR = target: T1, Human TOR (Homo sapiens, UniProt P42345); assay: Human TOR (mTOR) kinase assay, DELFIA format; type: biochemical
T1 construct: FLAG
Summary of the method: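 Purified FLAG-TOR (800 ng/mL) phosphorylates His6-S6K ([…]) with […] ATP in Hepes pH 7.4 buffer containing MnCl2, 2 h at room temperature. Phospho-Thr389 S6K detected by DELFIA using Europium-labelled anti-P(T389)-p70S6K antibody; enzyme inhibition calculated from signal.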

[2] = system: MDA468 (human breast cancer cell); assay: Cell proliferation (MTS) assay, MDA468; type: cell-based; conditions: Homo sapiens, 72 h, three days treatment
Summary of the method: (§1)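 Cells plated at about 3000 per well in RPMI-1640/10% FBS were dosed with compound one day later. Viability was read by MTS conversion (absorbance 490 nm, 1–2 h) three days after treatment began. Effect is expressed as percent of vehicle-treated growth on the same plate.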

[3] = system: LNCaP (human prostate carcinoma); assay: Cell proliferation (MTS) assay, LNCaP; type: cell-based; conditions: Homo sapiens, LNCaP, 72 h, three days treatment
Summary of the method: as §1

PI3K = system: T2, PI3K; assay: Fluorescence polarization assay for PI3K; type: biochemical; conditions: for IC50: Table 2
T2 construct: PI3K FP IC50
Summary of the method: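 PI3K was preincubated with compound at 1% DMSO final, then reacted with PIP2/ATP substrate for 30-60 min. The reaction was stopped with a detector mix giving 10 nM red probe and 70 nM GST-GRP. Fluorescence polarization (mP, Tamra filters) was read 30-90 min later and IC50 determined.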

[4] = system: DU145 (human prostate carcinoma/lymphocytic leukemia); assay: Cell proliferation (MTS) assay, DU145; type: cell-based; conditions: Homo sapiens, DU-145, 72 h, three days treatment
Summary of the method: as §1

[5] = system: MDA435 (human breast adenocarcinoma); assay: Cell proliferation (MTS) assay, MDA435; type: cell-based; conditions: Homo sapiens, MDA435, 72 h, three days treatment
Summary of the method: as §1

| Structure (SMILES) | IC50 ([1]; Table 1) | IC50 (Human TOR; Table 1) | IC50 ([2]; Table 1) | IC50 ([3]; Table 1) | PI3K FP IC50 (PI3K; Table 1) | IC50 ([4]; Table 1) | IC50 ([5]; Table 1) | IC50 ([1]; Table 2) | IC50 (Human TOR; Table 2) | IC50 ([2]; Table 2) | IC50 ([3]; Table 2) | IC50 (PI3K) | IC50 ([4]; Table 2) | IC50 ([5]; Table 2) |
| --- | --- | --- | --- | --- | --- | --- | --- | --- | --- | --- | --- | --- | --- | --- |
| COC[C@H]1OC(=O)/C(=C/Nc2ccccc2)C2=C(O)C(=O)C3=C([C@H](OC(C)=O)C[C@]4(C)[C@@H](O)CC[C@@H]34)[C@]21C [Compound 3, (1E,4S,4aR,5R,6aS,7S,9aR)-1-(anilinomethylene)-7,11-dihydroxy-4-(methoxymethyl)-4a,6a-dimethyl-2,10-dioxo-1,2,4,4a,5,6,6a,7,8,9,9a,10-dodecahydroindeno[4,5-h]isochromen-5-yl acetate] | > 0.1 µg/mL | 9170 nM | 5 µg/mL | 3.5 µg/mL | 0.228 µg/mL | 12 µg/mL | 15 µg/mL | – | – | – | – | – | – | – |
| COCC1OC(=O)C(=CN(CCO)CCO)C2=C(O)C(=O)C3=C(C(OC(C)=O)CC4(C)C(O)CCC34)C21C (stereo not shown) [Compound 19, Acetic acid 4-{[bis-(2-hydroxy-ethyl)-amino]-methylene}-6,17-dihydroxy-1-methoxymethyl-10,13-dimethyl-3,7-dioxo-1,3,4,7,10,11,12,13,14,15,16,17-dodecahydro-2-oxa-cyclopenta[a]phenanthren-11-yl ester] | – | – | – | – | – | – | – | > 0.1 µg/mL | > 18700 nM | 1.2 µg/mL (≈ 2.24 µM) | 0.07 µg/mL (≈ 0.131 µM) | 918 nM | 1.7 µg/mL (≈ 3.17 µM) | 6 µg/mL (≈ 11.2 µM) |
| COCC1OC(=O)C(=CN(C)C(C)(C)C)C2=C(O)C(=O)C3=C(C(OC(C)=O)CC4(C)C(O)CCC34)C21C (stereo not shown) [Compound 20, Acetic acid 4-[(tert-butyl-methyl-amino)-methylene]-6,17-dihydroxy-1-methoxymethyl-10,13-dimethyl-3,7-dioxo-1,3,4,7,10,11,12,13,14,15,16,17-dodecahydro-2-oxa-cyclopenta[a]phenanthren-11-yl ester] | – | – | – | – | – | – | – | > 0.1 µg/mL | > 19300 nM | 0.62 µg/mL (≈ 1.2 µM) | 0.06 µg/mL (≈ 0.116 µM) | 440 nM | 1.1 µg/mL (≈ 2.13 µM) | 5 µg/mL (≈ 9.66 µM) |
| COCC1OC(=O)C(=CN(CCCN(C)C)CCCN(C)C)C2=C(O)C(=O)C3=C(C(OC(C)=O)CC4(C)C(O)CCC34)C21C (stereo not shown) [Compound 21, Acetic acid 4-{[bis-(3-dimethylamino-propyl)-amino]-methylene}-6,17-dihydroxy-1-methoxymethyl-10,13-dimethyl-3,7-dioxo-1,3,4,7,10,11,12,13,14,15,16,17-dodecahydro-2-oxa-cyclopenta[a]phenanthren-11-yl ester] | – | – | – | – | – | – | – | 0.1 µg/mL (≈ 0.162 µM) | 3560 nM | 3.9 µg/mL (≈ 6.31 µM) | 0.16 µg/mL (≈ 0.259 µM) | 22 nM | 12 µg/mL (≈ 19.4 µM) | 11 µg/mL (≈ 17.8 µM) |
| COCC1OC(=O)C(=CN2CCC(C(=O)OC)CC2)C2=C(O)C(=O)C3=C(C(OC(C)=O)CC4(C)C(O)CCC34)C21C (stereo not shown) [Compound 22, 1-(11-Acetoxy-6,17-dihydroxy-1-methoxymethyl-10,13-dimethyl-3,7-dioxo-1,7,10,11,12,13,14,15,16,17-decahydro-2-oxa-cyclopenta[a]phenanthren-4-ylidenemethyl)-piperidine-4-carboxylic acid methyl ester] | – | – | – | – | – | – | – | 0.1 µg/mL (≈ 0.174 µM) | 1690 nM | 3.5 µg/mL (≈ 6.1 µM) | 0.29 µg/mL (≈ 0.506 µM) | 52 nM | 17 µg/mL (≈ 29.6 µM) | 18 µg/mL (≈ 31.4 µM) |
| COCC1OC(=O)C(=CN2CCC(C(=O)O)CC2)C2=C(O)C(=O)C3=C(C(OC(C)=O)CC4(C)C(O)CCC34)C21C (stereo not shown) [Compound 23, 1-(11-Acetoxy-6,17-dihydroxy-1-methoxymethyl-10,13-dimethyl-3,7-dioxo-1,7,10,11,12,13,14,15,16,17-decahydro-2-oxa-cyclopenta[a]phenanthren-4-ylidenemethyl)-piperidine-4-carboxylic acid] | – | – | – | – | – | – | – | 0.1 µg/mL (≈ 0.179 µM) | 822 nM | 4 µg/mL (≈ 7.15 µM) | 0.28 µg/mL (≈ 0.5 µM) | 33 nM | 17 µg/mL (≈ 30.4 µM) | 17 µg/mL (≈ 30.4 µM) |
| COCC1OC(=O)C(=CN(C)C(C=C(C)C(=O)OC)C(C)C)C2=C(O)C(=O)C3=C(C(OC(C)=O)CC4(C)C(O)CCC34)C21C (stereo not shown) [Compound 24, 4-[(11-Acetoxy-6,17-dihydroxy-1-methoxymethyl-10,13-dimethyl-3,7-dioxo-1,7,10,11,12,13,14,15,16,17-decahydro-2-oxa-cyclopenta[a]phenanthren-4-ylidenemethyl)-methyl-amino]-2,5-dimethyl-hex-2-enoic acid methyl ester] | – | – | – | – | – | – | – | > 0.1 µg/mL | > 16200 nM | 1.05 µg/mL (≈ 1.71 µM) | 0.13 µg/mL (≈ 0.211 µM) | 5400 nM | 4 µg/mL (≈ 6.5 µM) | 10.1 µg/mL (≈ 16.3 µM) |
| COCC1OC(=O)C(=CN(C)CCCN2CCN(c3ccc(OC)cc3)CC2)C2=C(O)C(=O)C3=C(C(OC(C)=O)CC4(C)C(O)CCC34)C21C (stereo not shown) [Compound 25, Acetic acid 6,17-dihydroxy-1-methoxymethyl-4-[({3-[4-(4-methoxy-phenyl)-piperazin-1-yl]-propyl}-methyl-amino)-methylene]-10,13-dimethyl-3,7-dioxo-1,3,4,7,10,11,12,13,14,15,16,17-dodecahydro-2-oxa-cyclopenta[a]phenanthren-11-yl ester] | – | – | – | – | – | – | – | 0.02 µg/mL (≈ 0.0288 µM) | 1350 nM | 4.3 µg/mL (≈ 6.2 µM) | 0.43 µg/mL (≈ 0.62 µM) | 15 nM | 20.5 µg/mL (≈ 29.5 µM) | 16 µg/mL (≈ 23.1 µM) |
| COCC1OC(=O)C(=CN(C)CCCN2CCN(C)CC2)C2=C(O)C(=O)C3=C(C(OC(C)=O)CC4(C)C(O)CCC34)C21C (stereo not shown) [Compound 26, Acetic acid 6,17-dihydroxy-1-methoxymethyl-10,13-dimethyl-4-({methyl-[3-(4-methyl-piperazin-1-yl)-propyl]-amino}-methylene)-3,7-dioxo-1,3,4,7,10,11,12,13,14,15,16,17-dodecahydro-2-oxa-cyclopenta[a]phenanthren-11-yl ester] | – | – | – | – | – | – | – | 0.02 µg/mL (≈ 0.0332 µM) | 2330 nM | 3.9 µg/mL (≈ 6.48 µM) | 0.28 µg/mL (≈ 0.465 µM) | 19 nM | 17 µg/mL (≈ 28.3 µM) | 21 µg/mL (≈ 34.9 µM) |
| COCC1OC(=O)C(=CN2CCC(=O)CC2)C2=C(O)C(=O)C3=C(C(OC(C)=O)CC4(C)C(O)CCC34)C21C (stereo not shown) [Compound 44, Acetic acid 6,17-dihydroxy-1-methoxymethyl-10,13-dimethyl-3,7-dioxo-4-(4-oxo-piperidin-1-ylmethylene)-1,3,4,7,10,11,12,13,14,15,16,17-dodecahydro-2-oxa-cyclopenta[a]phenanthren-11-yl ester] | – | – | – | – | – | – | – | 0.02 µg/mL (≈ 0.0378 µM) | 1110 nM | 3 µg/mL (≈ 5.66 µM) | 0.37 µg/mL (≈ 0.699 µM) | 60.2 nM | – | – |
| CCN(C=C1C(=O)OC(COC)C2(C)C3=C(C(=O)C(O)=C12)C1CCC(O)C1(C)CC3)CCN(C)C (stereo not shown) [Compound 45, 4-{[(2-Dimethylamino-ethyl)-ethyl-amino]-methylene}-6,17-dihydroxy-1-methoxymethyl-10,13-dimethyl-10,11,12,13,14,15,16,17-octahydro-1H,4H-2-oxa-cyclopenta[a]phenanthrene-3,7-dione] | – | – | – | – | – | – | – | 0.1 µg/mL (≈ 0.205 µM) | > 20500 nM | 5 µg/mL (≈ 10.2 µM) | 0.65 µg/mL (≈ 1.33 µM) | 369 nM | – | – |
| CCN(C=C1C(=O)OC(COC)C2(C)C1=C(O)C(=O)C1=C2C(OC(C)=O)CC2(C)C(O)CCC12)CCN(C)C (stereo not shown) [Compound 46, Acetic acid 4-{[(2-dimethylamino-ethyl)-ethyl-amino]-methylene}-6,17-dihydroxy-1-methoxymethyl-10,13-dimethyl-3,7-dioxo-1,3,4,7,10,11,12,13,14,15,16,17-dodecahydro-2-oxa-cyclopenta[a]phenanthren-11-yl ester] | – | – | – | – | – | – | – | 0.02 µg/mL (≈ 0.0366 µM) | 878 nM | 3.3 µg/mL (≈ 6.04 µM) | 0.65 µg/mL (≈ 1.19 µM) | 5.1 nM | – | – |
| COCC1OC(=O)C(=CN2CCC(N3CCCCC3)CC2)C2=C(O)C(=O)C3=C(C(OC(C)=O)CC4(C)C(O)CCC34)C21C (stereo not shown) [Compound 47, Acetic acid 4-[1,4′]bipiperidinyl-1′-ylmethylene-6,17-dihydroxy-1-methoxymethyl-10,13-dimethyl-3,7-dioxo-1,3,4,7,10,11,12,13,14,15,16,17-dodecahydro-2-oxa-cyclopenta[a]phenanthren-11-yl ester] | – | – | – | – | – | – | – | 0.05 µg/mL (≈ 0.0835 µM) | 568 nM | 5.8 µg/mL (≈ 9.69 µM) | 0.9 µg/mL (≈ 1.5 µM) | 63.3 nM | – | – |
| COCC1OC(=O)C(=CN2CCOCC2)C2=C(O)C(=O)C3=C(C(OC(C)=O)CC4(C)C(O)CCC34)C21C (stereo not shown) [Compound 48, Acetic acid 6,17-dihydroxy-1-methoxymethyl-10,13-dimethyl-4-morpholin-4-ylmethylene-3,7-dioxo-1,3,4,7,10,11,12,13,14,15,16,17-dodecahydro-2-oxa-cyclopenta[a]phenanthren-11-yl ester] | – | – | – | – | – | – | – | 0.02 µg/mL (≈ 0.0386 µM) | 831 nM | 3 µg/mL (≈ 5.8 µM) | 0.5 µg/mL (≈ 0.966 µM) | 36.1 nM | – | – |
